Test results: article PMC11859928, “Design, Synthesis, and Antiproliferative Activity of Novel Indole/1,2,4-Triazole Hybrids as Tubulin Polymerization Inhibitors” (Pharmaceuticals, 2025)

Legend:
Assay type in all cases: cell-based, human
ACHN = assay: NCI five-dose assay; details: five dose levels
EKVX = assay: NCI five-dose assay; details: five dose levels
OVCAR-4 = assay: NCI five-dose assay; details: OVCAR-4, five dose levels
PC-3 = assay: NCI five-dose assay; details: PC-3, five dose levels
RXF393 = assay: NCI five-dose assay; details: RXF393, five dose levels
M14 = assay: NCI five-dose assay; details: M14, five dose levels
DU-145 = assay: NCI five-dose assay; details: DU-145, five dose levels
OVCAR-3 = assay: NCI five-dose assay; details: OVCAR-3, five dose levels
SNB-19 = assay: NCI five-dose assay; details: SNB-19, five dose levels
NCI-H460 = assay: NCI five-dose assay; details: NCI-H460, five dose levels
MDA-MB-435 = assay: NCI five-dose assay; details: MDA-MB-435, five dose levels
HOP-62 = assay: NCI five-dose assay; details: HOP-62, five dose levels
UO-31 = assay: NCI five-dose assay; details: UO-31, five dose levels
A498 = assay: NCI five-dose assay; details: A498, five dose levels
SN12C = assay: NCI five-dose assay; details: five dose levels
CCRF-CEM = assay: NCI five-dose assay; details: Homo sapiens, five dose levels
OVCAR-8 = assay: NCI five-dose assay; details: OVCAR-8, five dose levels
Colon cancer subpanel = assay: NCI five-dose assay, subpanel mean
786-0 = assay: NCI five-dose assay; details: 786-0, five dose levels
HT29 = assay: NCI five-dose assay; details: HT29, five dose levels
CAKI-1 = assay: NCI five-dose assay; details: CAKI-1, five dose levels
Prostate cancer subpanel = assay: NCI five-dose assay, subpanel mean
SNB-75 = assay: NCI five-dose assay; details: SNB-75, five dose levels
NCI/ADR-RES = assay: NCI five-dose assay; details: five dose levels
SW-620 = assay: NCI five-dose assay; details: SW-620, five dose levels
KM12 = assay: NCI five-dose assay; details: KM12, five dose levels
SF-539 = assay: NCI five-dose assay; details: SF-539, five dose levels
[1] = Homo sapiens, read-out: GI50 Conc. per Cell Lines
[2] = Homo sapiens, read-out: LC50 (the source's name)

In the case of `O/N=C(\CSc1nnc(-c2c[nH]c3ccccc23)n1-c1ccccc1)c1ccc(Cl)cc1` [Compound 7j, (Z)-2-((5-(1H-Indol-3-yl)-4-phenyl-4H-1,2,4-triazol-3-yl)thio)-1-(4-chlorophenyl) Ethanone Oxime], the LC50 (ACHN; Homo sapiens) is reported as greater than 100 µM, the GI50 (ACHN; [1]) is reported as 3.69 µM and the “TGI Conc. per Cell Lines” value (ACHN) is reported as 14.5 µM. For the same compound, the GI50 (EKVX; [1]) was 3.21 µM, the CC50 (EKVX; [2]) was greater than 100 µM and the “TGI Conc. per Cell Lines” value (EKVX) was 19.2 µM. The LC50 (OVCAR-4; Homo sapiens) was greater than 100 µM, the GI50 (OVCAR-4; [1]) was 1.96 µM and the “TGI Conc. per Cell Lines” value (OVCAR-4) was 4.32 µM. For the same compound, the GI50 (PC-3; [1]) was 2.31 µM, the CC50 (PC-3; [2]) was greater than 100 µM and the “TGI Conc. per Cell Lines” value (PC-3) was 7.29 µM. For the same compound, the LC50 (concentration killing 50% of cells) (RXF393; Homo sapiens, RXF 393) was 46.3 µM, the GI50 (RXF393; Homo sapiens, RXF 393, read-out: GI50 Conc. per Cell Lines) was 2.22 µM and the “TGI Conc. per Cell Lines” value (RXF393) was 6.29 µM. For the same compound, the GI50 (M14; [1]) was 3.15 µM, the CC50 (M14; [2]) was greater than 100 µM and the “TGI Conc. per Cell Lines” value (M14) was 14.1 µM. The “TGI Conc. per Cell Lines” value (DU-145) was 6.32 µM, the GI50 (DU-145; [1]) was 2.59 µM and the CC50 (DU-145; [2]) was greater than 100 µM. The LC50 (OVCAR-3; Homo sapiens) was greater than 100 µM, the GI50 (OVCAR-3; [1]) was 4.58 µM and the “TGI Conc. per Cell Lines” value (OVCAR-3) was 32.4 µM. The GI50 (SNB-19; [1]) was 6.89 µM, the CC50 (SNB-19; [2]) was greater than 100 µM and the “TGI Conc. per Cell Lines” value (SNB-19) was 45.2 µM. The GI50 (NCI-H460; [1]) was 3.33 µM, the CC50 (NCI-H460; [2]) was greater than 100 µM and the “TGI Conc. per Cell Lines” value (NCI-H460) was 15.7 µM. The GI50 (MDA-MB-435; [1]) was 1.74 µM, the CC50 (MDA-MB-435; [2]) was 60.5 µM and the “TGI Conc. per Cell Lines” value (MDA-MB-435) was 3.41 µM. For the same compound, the “TGI Conc. per Cell Lines” value (HOP-62) was 3.65 µM, the GI50 (HOP-62; [1]) was 1.74 µM and the GI50 (UO-31; [1]) was 2.88 µM. The CC50 (UO-31; [2]) was 71.1 µM, the “TGI Conc. per Cell Lines” value (UO-31) was 15.7 µM and the “TGI Conc. per Cell Lines” value (A498) was 65.8 µM. It also gave an LC50 (A498; Homo sapiens) of 88.6 µM, a GI50 (A498; [1]) of 15.4 µM and a GI50 (SN12C; [1]) of 3.79 µM. For the same compound, the CC50 (SN12C; [2]) was greater than 100 µM, the “TGI Conc. per Cell Lines” value (SN12C) was 16.3 µM and the GI50 (CCRF-CEM; read-out: GI50 Conc. per Cell Lines) was 2.85 µM. For the same compound, the CC50 (CCRF-CEM; read-out: LC50 (the source's name)) was greater than 100 µM, the GI50 (OVCAR-8; [1]) was 3.72 µM and the CC50 (OVCAR-8; [2]) was greater than 100 µM. For the same compound, the “TGI Conc. per Cell Lines” value (OVCAR-8) was 15.8 µM, the “GI50 Selectivity Ratio (MID a/MID b)” value (Colon cancer subpanel; Colon cancer subpanel) was 0.978 and the GI50 (Colon cancer subpanel; Homo sapiens, Colon cancer, average sensitivity of all cell lines of the subpanel, read-out: GI50 Subpanel MID b) was 3.73 µM. The “TGI Conc. per Cell Lines” value (786-0) was greater than 100 µM, the LC50 (50% lethal concentration) (786-0; Homo sapiens) was 93.5 µM and the GI50 (786-0; [1]) was 7.29 µM. The “TGI Conc. per Cell Lines” value (HT29) was 11.8 µM, the GI50 (HT29; Homo sapiens, HT-29, read-out: GI50 Conc. per Cell Lines) was 3.04 µM and the CC50 (HT29; Homo sapiens, HT-29, read-out: LC50 (the source's name)) was greater than 100 µM. For the same compound, the “TGI Conc. per Cell Lines” value (CAKI-1) was 12.4 µM, the LC50 (CAKI-1; Homo sapiens) was greater than 100 µM and the GI50 (CAKI-1; [1]) was 2.93 µM. The GI50 (Prostate cancer subpanel; Homo sapiens, Prostate cancer, average sensitivity of all cell lines of the subpanel, read-out: GI50 Subpanel MID b) was 2.45 µM, the “GI50 Selectivity Ratio (MID a/MID b)” value (Prostate cancer subpanel; Prostate cancer subpanel) was 1.48 and the GI50 (SNB-75; [1]) was 1.68 µM. The CC50 (SNB-75; [2]) was greater than 100 µM, the “TGI Conc. per Cell Lines” value (SNB-75) was 5.80 µM and the LC50 (NCI/ADR-RES; Homo sapiens) was greater than 100 µM. For the same compound, the GI50 (NCI/ADR-RES; [1]) was 2.95 µM, the “TGI Conc. per Cell Lines” value (NCI/ADR-RES) was 9.50 µM and the GI50 (SW-620; [1]) was 3.08 µM. The CC50 (SW-620; [2]) was 83.2 µM, the “TGI Conc. per Cell Lines” value (SW-620) was 16.1 µM and the GI50 (KM12; [1]) was 4.72 µM. The CC50 (KM12; [2]) was greater than 100 µM, the “TGI Conc. per Cell Lines” value (KM12) was greater than 100 µM and the GI50 (SF-539; [1]) was 10.2 µM. For the same compound, the CC50 (SF-539; [2]) was 51.2 µM and the “TGI Conc. per Cell Lines” value (SF-539) was 29.5 µM.
